The values that follow come from patent US6949679B1, “Polyamine transport inhibitors” (Universite Laval, priority 1998, dated 2005).

Where two headings read alike, the source gives them in different places.

The subject of data set [1] is polyamine transporter. Put plainly: Inhibition of [3H]spermidine uptake in ZR-75-1 cells. Particulars: FIG. 32, 20 μM and 3 μM substrate, respectively, read-out: Apparent Ki, spermidine uptake. The class given is cell-based, human. Here is the method:
(§1) The rate of putrescine and spermidine transport was determined in ZR-75-1 cells incubated in serum-free RPMI 1640 medium as described (Lessard, M., Zhao, C., Singh, S. M. and Poulin, R. 1995. J. Biol. Chem. 270: 1685-1694), using [^3H]putrescine (30 Ci/mol) and [^3H]spermidine (20 Ci/mol), respectively as substrates for a 20 minute-assay period. Spermine uptake was similarly determined, using 1 μM [^14C]spermine (32 Ci/mol) as substrate. Uptake activity was expressed per amount of DNA as fluorometrically determined using 3,4-diaminobenzoic acid (Simard, J., Dauvois, S., Haagensen, D. E., Lėvesque, C., Mėrand, Y. and Labrie, F. 1990. Endocrinology, 126: 3223-3231). For the determination of spermidine uptake activity in CHO-K1 cells, 80% confluent cell monolayers were rinsed twice with PBS and incubated for 20 minutes at 37° C. in 400 μl of buffer A (20 mM Tris-HCl, pH 7.4; 0.42 mM CaCl2; 0.41 mM MgSO4; 103 mM NaCl; 5.7 mM KCl; 1.1 mM D-glucose) containing 5 μM [^3H]spermidine (20 Ci/mol). Cell cultures were then washed twice with 1 ml PBS containing 5.7 mM sym-norspermidine. Cells were then lysed with 200-μl aliquot of 1 N NaOH and incubated for 30 minutes at 60° C. After neutralization with 200 μl of 1 N HCl, radioactivity was determined from a 250-μl of the cell lysate by scintillation counting. Uptake activity was expressed per amount of total cellular protein as determined by the method of Bradford (Bradford, M. M. 1976. Anal. Biochem. 72: 248-254). Non-specific binding of radioactive substrate was similarly determined in parallel for both cell lines after a 15 second-incubation with 400 μl of ice-cold uptake solution.
Kinetic analysis of polyamine transport was performed by determining uptake activity in the presence of a 3 μM [^3H]putrescine or 1 μM [^3H]spermidine plus increasing concentrations of nonradioactive substrate. K[…] Ki and Vmax values were then estimated by Lineweaver-Burke analysis. For competitive inhibitors, Ki values were also estimated by measuring uptake activity in the presence of logarithmically increasing concentrations of antagonist, and using the Cheng-Prusoff equation (Cheng, Y.-C. and Prusoff, W. H. 1973. Biochem. Pharmacol. 22: 3099-3108) by iterative curve fitting for a sigmoidal curve. For mixed competitive/noncompetitive inhibition, two methods were used to calculate kinetic constants. First, the equation [drawing 2] where v, s, and i are the transport velocity, substrate concentration and inhibitor concentration respectively, was used to calculate the inhibition constants for inhibitor/carrier complex formation (Ki) and carrier/inhibitor/substrate complex formation (Ki′) (Dixon, M. and Webb, E. C. 1976. Enzymes, 3rd Ed., Academic Press, San Diego, Calif.). […]
(§2) In order to evaluate the effectiveness of dimeric triamines as polyamine transport inhibitors, we synthesized N,N′-bis(3-aminopropyl),N,N′-bis(4-aminobutyl)cystamine or BABAC (structure 1, FIG. 25; FIG. 31), and its thiol form N-(3-aminopropyl),N-(4-aminobutyl)cysteamine or AAC (FIG. 31) according to Scheme 4 described above (FIG. 30), using spermidine as a precursor polyamine. The ability of BABAC and AAC to inhibit the intracellular uptake of radio-labeled putrescine and spermidine in the ZR-75-1 human breast cancer cell line was then determined according to standard published procedures (Lessard, et al. and Poulin, et al.) Briefly, ZR-75-1 cells were grown for four days in twenty-four well plates in RPMI 1640 medium supplemented with 10% fetal bovine serum.

Data set [2] deals with polyamine transporter. Put plainly: Inhibition of [14C]spermine uptake in ZR-75-1 cells. It is filed as cell-based, human. Here is the method: as §1, with “Spermine uptake was similarly determined, using 1 μM [^14C]spermine (32 Ci/mol) as substrate.” left out
(§3) Kinetic analysis of polyamine transport was performed by determining uptake activity in the presence of a 3 μM [^3H]putrescine or 1 μM [^3H]spermidine plus increasing concentrations of nonradioactive substrate. K[…] Ki and Vmax values were then estimated by Lineweaver-Burke analysis. For competitive inhibitors, Ki values were also estimated by measuring uptake activity in the presence of logarithmically increasing concentrations of antagonist, and using the Cheng-Prusoff equation (Cheng, Y.-C. and Prusoff, W. H. 1973. Biochem. Pharmacol. 22: 3099-3108) by iterative curve fitting for a sigmoidal curve. For mixed competitive/noncompetitive inhibition, two methods were used to calculate kinetic constants. First, the equation [drawing 2] where v, s, and i are the transport velocity, substrate concentration and inhibitor concentration respectively, was used to calculate the inhibition constants for inhibitor/carrier complex formation (Ki) and carrier/inhibitor/substrate complex formation (Ki′) (Dixon, M. and Webb, E. C. 1976. Enzymes, 3rd Ed., Academic Press, San Diego, Calif.). Alternatively, the value of Ki for a mixed competitor/non-competitor was estimated from the intersect of equations v^−1 vs i at two different substrate concentrations (Dixon, M. and Webb, E. C. 1976. Enzymes, 3rd Ed., Academic Press, San Diego, Calif.). Intracellular Accumulation
as §2

In data set [3] the test system is polyamine transporter. As to the kind of experiment: Inhibition of [3H]putrescine uptake in ZR-75-1 cells. The class given is cell-based, human. Particulars: for Ki: ZR-75-1 cells. Here is the method: as §1, §3, §2
A further data set can be described thus: in vitro. The note with it: human.
The target of data set [4] is polyamine transporter. The note with it: ZR-75-1 cells; data annotated a (Lessard et al. 1995); read-out: Km or Ki, putrescine transport; cited from earlier work.
The target of data set [5] is polyamine transporter. Particulars: ZR-75-1 cells; data annotated a (Lessard et al. 1995); read-out: Km or Ki, spermidine transport; cited from earlier work.
In data set [6] the test system is ZR-75-1 cells. As to the kind of experiment: Effect on ZR-75-1 cell proliferation (11 days, DNA content). The class given is cell-based, human. Particulars: 50 μM. Here is the method:
(§4) For growth studies, ZR-75-1 cells were cultured in MEZR medium or in phenol red-free RPMI 1640 supplemented with 2 mM L-glutamine, 1 mM sodium pyruvate, 15 mM Hepes, antibiotics, 1 nM 17β-estradiol, 0.5 μg of bovine insulin per ml and 5% (v/v) charcoal-treated fetal bovine serum (SD medium), as indicated in the text. When polyamines or polyamine analogs were added to serum-containing media, 1 mM aminoguanidine was added to inhibit bovine serum amine oxidase (BSAO) activity (Morgan, D. M. L. 1989, in The Physiology of Polyamines (Bachrach, U., and Heimer, Y. M. eds) Vol. I, pp. 203-229, CRC Press, Boca Raton). The effect of the transport inhibitors on cell growth was measured by incubating ZR-75-1 cells for 11 days in medium supplemented with antagonist, polyamines and/or 1 mM DFMO as indicated, followed by colorimetric determination of DNA content with 3,4-diaminobenzoic acid (Simard, J., Dauvois, S., Haagensen, D. E., Lėvesque C., Mėrand, Y. and Labriė, F. 1990. Endocrinology 126: 3223-3231). Medium was changed every other day in these experiments because of the slow reaction of the compound with an unknown component present in the IMEM and RPMI 1640 medium formulation.
The biocompatibility of DESC, MESC, and DEASC was thus evaluated during a long-term (11-day) incubation with ZR-75-1 cells grown in RPMI 1640 containing 10% (v/v) FBS in the absence and presence of 1 mM aminoguanidine. […] Weak growth inhibition caused by the mixed MESC-cysteamine disulfide, however, apparently involved degradation by a copper amine oxidase.

For data set [7] the following is noted: MESC: amino group neighboring the amide linkage; cited from earlier work.
In data set [8] the test system is ZR-75-1 cells. As to the kind of experiment: Time course of intracellular [3H]spermidine accumulation in presence of transport antagonists. It is filed as cell-based, human. Particulars: 200 μM CHX, after 4 hours. Here is the method:
The time course of intracellular accumulation of spermidine in the presence of transport antagonists was determined by incubating ZR-75-1 cells in 24-well plates with DESC (50 or 200 μM) or MESC (200 μM) in dissolved in MEZR medium containing 5 μM [^3H]spermidine in the presence or absence of cycloheximide (CHX, 200 μM), and harvesting at the indicated times for the determination of intracellular radioactive contents, as described above for polyamine uptake assays.

A short description of data set [9]: Stability in buffered aqueous solution. It is filed as physicochemical. The note with it: buffered at pH=7.0.
Data set [10] has as its system ZR-75-1 cells. Put plainly: Reversal of DFMO-induced growth inhibition by exogenous spermidine. The class given is cell-based, human. Particulars: Homo sapiens, ZR-75-1, 264 h; 1 mM DFMO, 11-day incubation. Here is the method: as §4, with “3223-3231).” for “3223-3231). Medium was changed every other day in these experiments because of the slow reaction of the compound with an unknown component present in the IMEM and RPMI 1640 medium formulation.”
This possibility was assessed by comparing the ability of DESC to prevent the reversal of DFMO-induced growth inhibition by increasing concentrations of exogenous spermidine.

In data set [11] the test system is ZR-75-1 cells. As to the kind of experiment: Intracellular accumulation of inhibitor and polyamine contents (HPLC) in ZR-75-1 cells. The class given is cell-based, human. The note with it: ZR-75-1 cells, 6-hour incubation, HPLC of cell extracts.
In data set [12] the test system is polyamine transporter. As to the kind of experiment: Inhibition of [14C]spermine uptake in ZR-75-1 cells. The class given is cell-based, human. Particulars: 3μM substrate (Example 11), read-out: Ki, [14C]spermine transport.
Setting [13] is: FIG. 32, read-out: Apparent Ki, spermine uptake.
[14] abbreviates: FIG. 32, 20 μM and 3 μM substrate, respectively, read-out: Apparent Ki, putrescine uptake.
[15] abbreviates: this work, read-out: Km or Ki, spermine transport.

From the text for in vitro: FIG. 34 represents the relative cytotoxicity of sym-norspermidine (NSpd), BABAC and TADAX in ZR-75-1 human breast cancer cells. Data are the mean±SD of triplicate determinations from a representative experiment.

Broadly, the IC50 is the concentration needed to halve the response being measured. Consider `NCCCCN(CCCN)CCSSCCN(CCCN)CCCCN` [BABAC, N,N′-bis(3-aminopropyl),N,N′-bis(4-aminobutyl)cystamine], for which the Ki with polyamine transporter [1] amounted to 680 nM; with polyamine transporter [2] (setting [13]), 2100 nM; with polyamine transporter [3] (setting [14]), 150 nM. In addition, in “in vitro” (ZR-75-1 cells), the IC50 was 17 µM.

For `NCCCCN` [Putrescine, 1,4-butane-diamine], the Ki on polyamine transporter [4] was 3700 ± 400 nM; in the data set on polyamine transporter [2] (setting [15]), 230 ± 130 nM; on polyamine transporter [5], 125 ± 29 µM.

The term Km denotes the concentration of substrate that gives half-maximal velocity. `NCCCNCCCCNCCCN` [Spermine, N,N′-bis-[3-aminopropyl]-1,4-butanediamine, reference compound]: the Ki with polyamine transporter [1] is 400 nM; at polyamine transporter [4], 330 ± 20 nM; in the data set on polyamine transporter [2] (setting [15]) it was 200 ± 60 nM; with polyamine transporter [3] (setting [14]), 74.5 nM. Further, the Km in the data set on polyamine transporter [2] (3μM substrate (Example 11), read-out: Apparent Km, spermine transport) is 600 nM. Further, in the data set with ZR-75-1 cells [6] (with or without 1 mM aminoguanidine), the “Effect on cell growth” value is reported as “acutely cytotoxic”. The “pKa of secondary amino group of the spermine head” value in data set [7] was 8.9-9.8.

Take `C[C@@H]1C[C@@H]([C@H](O)CC2CC(=O)NC(=O)C2)C(=O)[C@@H](C)C1` [CHX, cycloheximide, reference compound]: the “Increase in spermidine accumulation” value in the data set with ZR-75-1 cells [8] is 4 fold.

As to `NCCCNCCCC(NCCCN)C(=O)NCCSSCCN` (stereo not drawn) [DEASC, N-[2,2′-dithio(ethyl,1-aminoethyl)]spermine-5-carboxamide], in the data set on polyamine transporter [2] (FIG. 2), the “Ki for [14C]spermine transport, fold higher than that of DESC” value was “about 5 fold”. The Ki came to 16000 ± 3000 nM with polyamine transporter [2] (setting [15]); 4100 nM in the data set with polyamine transporter [3] (mixed competitive/non-competitive model, read-out: Ki′ (carrier/inhibitor/putrescine complex formation)); 5300 ± 600 nM in the data set with polyamine transporter [3] (this work, DEASC: Ki of mixed competitive/non-competitive model, read-out: Ki, putrescine transport). In the data set on ZR-75-1 cells [6] (completely prevented by aminoguanidine), the “Inhibition of cell proliferation” value turned out to be 20%. Besides, in the data set with polyamine transporter [3] (Lineweaver-Burke, DESC up to 100 μM, MESC up to 200 μM), the “Mode of inhibition of [3H]putrescine uptake” value is recorded as “mixed competitive/non-competitive type”. Moreover, the “Stability in aqueous solutions” value in data set [9] is listed as “stable for months”.

Turning to `NCCCNCCCN` [sym-norspermidine, N-(3-aminopropyl)-1,3-diaminopropane, reference compound], 6.4 µM corresponded to half-maximal inhibition in the data set “in vitro” (IC50).

`NCCCCN(CCS)CCCN` [AAC, N-(3-aminopropyl),N-(4-aminobutyl)cysteamine]: the Ki in the data set with polyamine transporter [1] came to 4370 nM; in the data set with polyamine transporter [2] (setting [13]), 3900 nM; in the data set on polyamine transporter [3] (setting [14]), 540 nM.

Broadly, the inhibition is the change of the read-out against control, counted positive when it falls. With `NCCCC(N)(C(=O)O)C(F)F` (racemic) [DFMO, D,L-α-difluoromethylornithine], the inhibition at 1000 µM in the data set on ZR-75-1 cells [10] was ~50%.

For `NCCCN(CCCN)Cc1ccc(CN(CCCN)CCCN)cc1` [TADAX, N,N,N′,N′-tetrakis(3-aminopropyl)-p-xylylenediamine], the “Accumulation of the compound in cells” value in the data set with ZR-75-1 cells [11] was “no detectable accumulation”. Besides, the IC50 in the data set “in vitro” (ZR-75-1 cells) was > 500 µM. The Ki in the data set on polyamine transporter [12] was 1500 nM.
